The source of these data is PMC6115767, “Soybean- and Lupin-Derived Peptides Inhibit DPP-IV Activity on In Situ Human Intestinal Caco-2 Cells and Ex Vivo Human Serum” (Nutrients, 2018).

No end group written: not given here.

Data set [1] concerns the target T1, DPP-IV (in situ, human intestinal Caco-2 cells) (Homo sapiens, UniProt P27487). Nature of the data set: In situ DPP-IV activity assay on 2-, 4- and 6-day Caco-2 cells (Gly-Pro-AMC). As to conditions: for reduction of in situ DPP-IV activity vs control: 2-day Caco-2 cells, 100 µM peptide, 1 h pre-incubation, 50 µM Gly-Pro-AMC, 10 min, three experiments in triplicate.
Procedure: (§1) Caco-2 cells, obtained from INSERM (Paris, France), were routinely sub-cultured at 50% density [22] and maintained at 37 °C in a 90% air/10% CO2 atmosphere in DMEM containing 25 mM of glucose, 3.7 g/L of NaHCO3, 4 mM of stable L-glutamine, 1% nonessential amino acids, 100 U/L of penicillin, and 100 µg/L of streptomycin (complete medium), supplemented with 10% heat-inactivated fetal bovine serum (FBS; Hyclone Laboratories, Logan, UT, USA).
(§2) The medium was regularly changed three times a week. Caco-2 cells DPP-IV activity was assayed on days 2, 4, and 6 from seeding.

The target in data set [2] is T1, DPP-IV (in situ, human intestinal Caco-2 cells).
Procedure: as §1, §2
Data set [3] concerns the target T2, circulating DPP-IV in human serum (Homo sapiens, UniProt P27487).
T2 construct: a soluble form of DPP-IV lacking the cytoplasmic and transmembrane domains is present in plasma and other body fluids; from tissue; host or cells: human serum from a healthy volunteer
The data set is described as follows: Ex vivo circulating DPP-IV activity assay in human serum (Gly-Pro-AMC). As to conditions: 24 h at 37 °C, 50 µM Gly-Pro-AMC final, three experiments in triplicate. The data set is classed as biochemical. Here is the method:
Human serum samples prepared from freshly collected venous blood from a healthy volunteer were aliquoted 40 µL/well in black 96-well plates and 10 µL of each inhibitor were added for 24 h at 37 °C. […] Subsequently, 50 µL of 100 µM Gly-Pro-AMC was added to each well to achieve a final substrate concentration of 50 µM.

The test system of a further data set is intestinal Caco-2 cells. As to conditions: cited from earlier work. Here is the method:
Considered all of these aspects, using live intestinal Caco-2 cells, experiments were performed to investigate in detail the ability of Lup1 and Soy1 to inhibit DPP-IV activity, in the presence of BB proteolytic activity.

The conditions of data set [4]: cited from earlier work.

T2 sequence (P27487 39-766 limits assumed): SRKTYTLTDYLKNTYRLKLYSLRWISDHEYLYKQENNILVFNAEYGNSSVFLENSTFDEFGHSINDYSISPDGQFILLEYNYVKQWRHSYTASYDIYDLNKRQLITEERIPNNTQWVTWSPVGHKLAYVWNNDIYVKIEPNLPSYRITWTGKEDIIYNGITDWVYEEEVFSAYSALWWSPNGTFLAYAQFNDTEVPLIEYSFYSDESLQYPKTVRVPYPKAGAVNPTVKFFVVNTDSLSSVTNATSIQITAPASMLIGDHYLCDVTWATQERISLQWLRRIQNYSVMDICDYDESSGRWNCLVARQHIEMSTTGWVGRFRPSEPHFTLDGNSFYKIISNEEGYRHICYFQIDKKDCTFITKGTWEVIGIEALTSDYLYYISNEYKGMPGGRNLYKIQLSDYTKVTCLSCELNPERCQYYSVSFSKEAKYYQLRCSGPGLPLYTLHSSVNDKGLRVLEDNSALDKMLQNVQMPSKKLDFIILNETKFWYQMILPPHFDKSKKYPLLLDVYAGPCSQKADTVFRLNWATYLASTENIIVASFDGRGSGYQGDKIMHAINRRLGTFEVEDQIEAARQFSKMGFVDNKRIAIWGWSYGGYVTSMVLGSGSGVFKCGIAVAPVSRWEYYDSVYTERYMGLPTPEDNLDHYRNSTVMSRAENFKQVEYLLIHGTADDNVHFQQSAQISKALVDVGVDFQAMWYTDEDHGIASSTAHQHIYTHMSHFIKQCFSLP
T1 sequence (P27487 whole entry): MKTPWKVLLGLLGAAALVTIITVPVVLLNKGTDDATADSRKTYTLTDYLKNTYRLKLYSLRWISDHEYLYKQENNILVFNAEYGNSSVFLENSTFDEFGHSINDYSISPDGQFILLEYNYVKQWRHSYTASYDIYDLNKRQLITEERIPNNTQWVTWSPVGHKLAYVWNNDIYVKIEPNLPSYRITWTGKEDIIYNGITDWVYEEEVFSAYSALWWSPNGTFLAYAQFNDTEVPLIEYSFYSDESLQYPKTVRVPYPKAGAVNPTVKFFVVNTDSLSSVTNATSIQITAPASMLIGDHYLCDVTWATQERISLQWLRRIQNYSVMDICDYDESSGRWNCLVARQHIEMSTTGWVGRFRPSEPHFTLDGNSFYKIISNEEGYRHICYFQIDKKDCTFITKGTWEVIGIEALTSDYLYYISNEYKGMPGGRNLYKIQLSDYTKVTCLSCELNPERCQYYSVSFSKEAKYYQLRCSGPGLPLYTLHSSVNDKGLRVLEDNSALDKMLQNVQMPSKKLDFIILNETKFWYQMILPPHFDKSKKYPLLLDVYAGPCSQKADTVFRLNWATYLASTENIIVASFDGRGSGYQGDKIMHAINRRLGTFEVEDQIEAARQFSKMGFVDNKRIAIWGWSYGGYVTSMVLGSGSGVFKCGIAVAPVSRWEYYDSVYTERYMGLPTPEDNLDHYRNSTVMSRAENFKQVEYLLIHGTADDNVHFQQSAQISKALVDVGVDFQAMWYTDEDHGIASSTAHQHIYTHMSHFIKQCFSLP

With IAVPTGVA [Soy1], in data set [1], the IC50 turned out to be 223 µM and the “reduction of in situ DPP-IV activity vs control” value is 50%. The “in situ IC50 compared with in vitro IC50” value in data set [2] stood at 2 fold. The “decrease of circulating DPP-IV activity vs control” value (from here on “decrease”) in data set [3] (100 µM peptide) is given as 27.7%. Besides, in data set [3] (300 µM peptide), the “decrease” value is reported as 35.0%. In addition, the breakdown fragments formed entry with intestinal Caco-2 cells (Caco-2 cells, already after 2 h of incubation) is “IAVPT and AVPTGVA”. In addition, the “susceptibility to intestinal endopeptidases (in words)” value in the data set with intestinal Caco-2 cells (Caco-2 cells) is given as “susceptible to the action of intestinal endopeptidases”.
`N[C@@H](CC(=O)N1CCn2c(nnc2C(F)(F)F)C1)Cc1cc(F)c(F)cc1F` [sitagliptin, Sitagliptin]: in data set [4], the “absorption in vivo (in words)” value is given as “rapidly absorbed”.
LTFPGSAED [Lup1] yielded an IC50 in data set [1] of 207 µM. Besides, in data set [1] (2-day Caco-2 IC50 vs in vitro purified enzyme IC50), the “in situ IC50 compared with in vitro IC50 (in words)” value was “in agreement with that obtained with the in vitro assay”. For the same compound, the “reduction of in situ DPP-IV activity vs control” value in data set [1] stood at 50%. Besides, the “decrease” value is 18.1% in data set [3] (100 µM peptide) and 24.7% in data set [3] (300 µM peptide). Besides, the “stability to apical proteases (in words)” value in the data set with intestinal Caco-2 cells (differentiated Caco-2 cells, apical proteases, after 4 h of incubation) is reported as “not degraded”. Besides, in the data set on intestinal Caco-2 cells (differentiated intestinal Caco-2 cells), the “absorption by Caco-2 cells (in words)” value is “absorbed intact”.

The IC50 is the midpoint of a concentration-inhibition curve. Read a low IC50 as higher potency.
